Data taken from patent US20070128217A1 (priority 2003, published 2007).

Columns and labels:
[1] = tested on: control sera (pooled serum of ten healthy LUMC hospital workers; commercial negative donor pooled serum from the Dutch bloodbank); assay type: binding, human; design: Binding of Control serum LUMC to linear peptides / Binding of Control serum Blood-bank to linear peptides / Binding of Control serum LUMC to looped peptides / Binding of Control Serum Blood-Bank to Looped peptides / Binding of Control serum LUMC to linear peptides of the protein M of SARS-CoV Urbani / Binding of Control serum Blood-bank to linear peptides of the protein M of SARS-CoV Urbani / Binding of Control serum LUMC to looped peptides of the protein M of SARS-CoV Urbani / Binding of Control Serum Blood-Bank to Looped peptides of the protein M of SARS-CoV Urbani: unit not given here
[2] = tested on: rabbit serum obtained by immunizing a rabbit with the SARS-CoV strain Frankfurt 1; assay type: binding; design: Binding of a rabbit serum to linear peptides / Binding of a rabbit serum to looped peptides / Rabbit serum linear peptides / Rabbit serum looped peptides / Binding of a rabbit serum to linear peptides of protein N of SARS-CoV Urbani (Rabbit serum linear peptides) / Binding of a rabbit serum to looped/cyclic peptides of protein N of SARS-CoV Urbani (Rabbit serum looped peptides): unit not given here
[3] = tested on: antibodies in sera from SARS patients (sera 1a, 1b, 2, 6, 37, 62, London, SARS-yellow, SARS-green); assay type: binding, human; design: Binding of serum 6 to linear peptides of protein X1 of SARS-CoV Urbani / Binding of serum 37 to linear peptides of protein X1 of SARS-CoV Urbani / Binding of serum 6 to looped/cyclic peptide (PEPSCAN-ELISA) / Binding of serum 37 to looped/cyclic peptide (PEPSCAN-ELISA) / Binding of serum 37 to looped/cyclic peptides of protein X1 of SARS-CoV Urbani / Binding of serum 6 to linear peptides of protein X2 / Binding of serum 37 to linear peptides of protein X2 / Binding of serum 37 to looped/cyclic peptides of protein X2 of SARS-CoV Urbani / Binding of serum 6 to linear peptides of protein M of SARS-CoV Urbani / Binding of serum 37 to linear peptides of protein M of SARS-CoV Urbani / Binding of serum 6 to looped/cyclic peptides of protein M of SARS-CoV Urbani / Binding of serum 37 to looped/cyclic peptides of protein M of SARS-CoV Urbani / Binding of serum 6 to linear peptides of protein X3 of SARS-CoV Urbani / Binding of serum 37 to linear peptides of protein X3 of SARS-CoV Urbani / Binding of serum 37 to looped/cyclic peptides of protein X3 of SARS-CoV Urbani / Binding of serum 6 to linear peptides of protein X4 of SARS-CoV Urbani / Binding of serum 37 to linear peptides of protein X4 of SARS-CoV Urbani / Binding of serum 37 to looped/cyclic peptides of protein X4 of SARS-CoV Urbani / Binding of serum 6 to linear peptides of protein X5 of SARS-CoV Urbani / Binding of serum 37 to linear peptides of protein X5 of SARS-CoV Urbani / Binding of serum 37 to looped/cyclic peptides of protein X5 of SARS-CoV Urbani / Binding of serum 6 to linear peptides of protein N of SARS-CoV Urbani / Binding of serum 37 to linear peptides of protein N of SARS-CoV Urbani / Binding of serum 6 to linear peptide (PEPSCAN-ELISA) / Binding of serum 1a to looped/cyclic peptides of protein N of SARS-CoV Urbani / Binding of serum 1b to looped/cyclic peptides of protein N of SARS-CoV Urbani / Binding of serum 2 to looped/cyclic peptides of protein N of SARS-CoV Urbani / Binding of serum 6 to looped/cyclic peptides of protein N of SARS-CoV Urbani / Binding of serum 37 to looped/cyclic peptides of protein N of SARS-CoV Urbani / Binding of serum 62 to looped/cyclic peptides of protein N of SARS-CoV Urbani / Binding of serum London to looped/cyclic peptides of protein N of SARS-CoV Urbani / Binding of serum SARS-green to looped/cyclic peptides of protein N of SARS-CoV Urbani: unit not given here

Row | Sequence | Binding of Control Serum Blood-Bank to Looped peptides [1] | Binding of Control serum Blood-bank to linear peptides [1] | Binding of Control serum LUMC to linear peptides [1] | Binding of Control serum LUMC to looped peptides [1] | Binding of a rabbit serum to linear peptides [2] | Binding of a rabbit serum to looped peptides [2] | Binding of serum 1a to linear peptides of protein X1 of SARS-CoV Urbani [3] | Binding of serum 1a to looped/cyclic peptide (PEPSCAN-ELISA) [3] | Binding of serum 1b to linear peptides of protein X1 of SARS-CoV Urbani [3] | Binding of serum 1b to looped/cyclic peptide (PEPSCAN-ELISA) [3] | Binding of serum 2 to linear peptides of protein X1 of SARS-CoV Urbani [3] | Binding of serum 2 to looped/cyclic peptide (PEPSCAN-ELISA) [3] | Binding of serum 6 to linear peptides of protein X1 of SARS-CoV Urbani [3] | Binding of serum 6 to looped/cyclic peptide (PEPSCAN-ELISA) [3] | Binding of serum 37 to linear peptides of protein X1 of SARS-CoV Urbani [3] | Binding of serum 37 to looped/cyclic peptide (PEPSCAN-ELISA) [3] | Binding of serum 62 to linear peptides of protein X1 of SARS-CoV Urbani [3] | Binding of serum 62 to looped/cyclic peptide (PEPSCAN-ELISA) [3] | Binding of serum London to linear peptides of protein X1 of SARS-CoV Urbani [3] | Binding of serum London to looped/cyclic peptide (PEPSCAN-ELISA) [3] | further results
1 | LFMRFFTLGSITAQP | 0.7 | 0.7 | 0.6 | 0.5 | 0.5 | 0.4 | 0.8 | 0.5 | 0.7 | 0.3 | 0.6 | 0.4 | 0.5 | 0.3 | 0.6 | 0.5 | 0.6 | 0.5 | 0.3 | 0.2 | Binding of serum SARS-green to linear peptides of protein X1 of SARS-CoV Urbani [3]: 0.2; Binding of serum SARS-green to looped/cyclic peptide (PEPSCAN-ELISA) [3]: 0.3; Binding of serum SARS-yellow to linear peptides of protein X1 of SARS-CoV Urbani [3]: 0.6; Binding of serum SARS-yellow to looped/cyclic peptide (PEPSCAN-ELISA) [3]: 0.4
2 | LFVTIYSHLLLVAAG | 0.6 | 0.5 | 0.4 | 0.6 | 0.1 | 0.6 | 0.7 | 0.5 | 0.4 | 0.3 | 0.6 | 0.4 | 0.3 | 0.2 | 0.6 | 0.5 | 0.5 | 0.5 | 0.2 | 0.2 | Binding of serum SARS-green to linear peptides of protein X1 of SARS-CoV Urbani [3]: 0.2; Binding of serum SARS-green to looped/cyclic peptide (PEPSCAN-ELISA) [3]: 0.3; Binding of serum SARS-yellow to linear peptides of protein X1 of SARS-CoV Urbani [3]: 0.5; Binding of serum SARS-yellow to looped/cyclic peptide (PEPSCAN-ELISA) [3]: 0.4
3 | LIARCWYLHEGHQTA | 0.3 | 0.6 | 0.4 | 0.0 | – | – | – | – | – | – | – | – | – | – | – | – | – | – | – | – | Rabbit serum linear peptides [2]: 0.8; Rabbit serum looped peptides [2]: 0.0; Binding of serum 1a to linear peptides of protein X5 of SARS-CoV Urbani [3]: 0.7; Binding of serum 1a to looped/cyclic peptides of protein X5 of SARS-CoV Urbani [3]: 0.4; Binding of serum 1b to linear peptides of protein X5 of SARS-CoV Urbani [3]: 0.6; Binding of serum 1b to looped/cyclic peptides of protein X5 of SARS-CoV Urbani [3]: 0.4; Binding of serum 2 to linear peptides of protein X5 of SARS-CoV Urbani [3]: 0.6; Binding of serum 2 to looped/cyclic peptides of protein X5 of SARS-CoV Urbani [3]: 0.2; Binding of serum 6 to linear peptides of protein X5 of SARS-CoV Urbani [3]: 0.1; Binding of serum 6 to looped/cyclic peptides of protein X5 of SARS-CoV Urbani [3]: 0.1; Binding of serum 37 to linear peptides of protein X5 of SARS-CoV Urbani [3]: 0.8; Binding of serum 37 to looped/cyclic peptides of protein X5 of SARS-CoV Urbani [3]: 0.3; Binding of serum 62 to linear peptides of protein X5 of SARS-CoV Urbani [3]: 0.9; Binding of serum 62 to looped/cyclic peptides of protein X5 of SARS-CoV Urbani [3]: 0.1; Binding of serum London to linear peptides of protein X5 of SARS-CoV Urbani [3]: 0.6; Binding of serum London to looped/cyclic peptides of protein X5 of SARS-CoV Urbani [3]: 0.0; Binding of serum SARS-green to linear peptides of protein X5 of SARS-CoV Urbani [3]: 0.6; Binding of serum SARS-green to looped/cyclic peptides of protein X5 of SARS-CoV Urbani [3]: 0.6; Binding of serum SARS-yellow to linear peptides of protein X5 of SARS-CoV Urbani [3]: 0.0; Binding of serum SARS-yellow to looped/cyclic peptides of protein X5 of SARS-CoV Urbani [3]: 0.0
